Test results: US20130316389A1, “Method and System for Determining Characteristics of an Embryo and Uses Thereof” (University of Plymouth, priority 2010, published 2013)

Test system: zebra fish (Danio rerio) embryos
Assay: Movement pattern analysis of zebra fish embryos subjected to challenge (Example 5)
Format: in vivo
Settings: 30 minutes exposure
Method: Images of the movement of each subject embryo were recorded for a period of ten minutes. The imaging apparatus comprised a 4 megapixel monochrome camera (AVT Pike 421) operating at 15 Hz with a 1600×1200 pixel region of interest, connected to a zooming optic lens system (Keyence VHZ100R).
This temporal tracking technique first extracts corner features from each image. Thereafter, image features are registered from frame to frame and assigned a velocity variance to each, A feature with a high velocity variance was rejected, as indicating inaccurate tracking. The remaining features were used in subsequent analysis of the movement pattern of the embryo.
Four parameters of motion of the subject embryo were extracted from each frame of the image data and compared with the corresponding parameters in the preceding frames. The four parameters of motion were positive and negative angles of rotation, and Rho-theta angular changes to the centre of mass for the embryo. The centre of mass of the embryo was determined by determining the X and Y coordinates of every point of motion detected. The X and Y coordinates were summed to provide mean values for X and Y.
The resulting data were analysed for spectral content using the Fast Discrete Fourier Transform (FDFT), to generate data relating to the frequency of motion of the subject embryo. […] 18 frequency bins were analysed from the FDFT analysis. […]

CCO [ethanol]
movement pattern (optic flow) compared with the control embryos (1.5% ethanol in deionised water, stage 19 and 21.5 hpf embryos, 27° C): more peaks in positive and negative rotational movement and X and Y displacement of the centre of mass | distinction from control embryos by ANOSIM analysis of movement patterns (1.5% ethanol, stage 33 embryos): readily distinguished from the stage 33 control embryos
